Patent US20100305124A1, “Acylated Aminopyridine and Aminopyridazine Insecticides” (BAYER CROPSCIENCE AG, priority 2009, published 2010)
Where two headings read alike, the source gives them in different places.

Tested on: green peach aphid (Myzus persicae)
Experiment: Myzus test (MYZUPE), sprayed aubergine plants
Assay type: in vivo
Conditions: read-out: effect in % (aphids killed); for pest or weed control at 100 ppm: application rate of 100 ppm
Method: Solvent: 3 parts by weight of dimethylformamide Emulsifier: 1 part by weight of polyoxyethylenealkyl phenyl ether
An appropriate preparation of active ingredient is prepared by mixing 1 part by weight of active ingredient with the stated amount of solvent and emulsifier and diluting the concentrate with water to the desired concentration.
Aubergine plants (Solanum melongena) infested by all stages of the green peach aphid (Myzus persicae) are sprayed with a preparation of active ingredient at the desired concentration.
After the desired time, the effect in % is determined; here, 100% means that all of the aphids have been killed. Conversely, 0% means that no aphids have been killed.

[1] = application rate of 500 ppm, spray on aubergine plants

| Compound | pest or weed control at 500 ppm [1] [%] | also measured |
| --- | --- | --- |
| CSc1ccc(C(=O)Nc2cccnc2)cn1 [I-108] | ≥ 80 | – |
| COc1cc(OC)nc(Sc2ccc(C(=O)Nc3cccnc3)cc2)n1 [I-176] | ≥ 80 | – |
| CCN(C(=O)c1ccc(N(C)C(=O)C(F)(F)Cl)cc1)c1cccnc1 [I-246] | ≥ 80 | – |
| CCN(C(=O)c1ccc(SC)c(F)c1)c1cccnc1 [I-67] | ≥ 80 | – |
| Cc1nc(Sc2ccc(C(=O)N(C)c3cccnc3)cn2)nc(C)c1C [I-138] | ≥ 80 | – |
| O=C(Nc1cccnc1)c1ccc(C(=O)N2CCCC2)cc1 [I-42] | ≥ 80 | – |
| CN(C(=O)c1ccc(Oc2cccc(C#N)c2)nc1)c1cccnc1 [I-112] | ≥ 80 | – |
| COc1cc(OC)nc(COc2cccc(C(=O)N(C)c3cccnc3)c2)n1 [I-207] | ≥ 80 | – |
| Cc1nc(Sc2ccc(C(=O)Nc3cccnc3)cn2)nc(C)c1C [I-218] | ≥ 80 | – |
| CN(C(=O)c1ccc(Oc2ccc(S(C)(=O)=O)cc2)nc1)c1cccnc1 [I-101] | ≥ 80 | – |
| CN(C(=O)c1ccc(N(C)C(=O)C(F)(F)C(F)(F)C(F)(F)F)cc1)c1cccnc1 [I-247] | – | pest or weed control at 500 ppm: ≥ 80% |
| CCSCc1ccc(C(=O)Nc2cccnc2)cc1 [I-33] | ≥ 80 | – |
| CN(C(=O)c1ccc(Oc2ccc(Cl)cc2)nc1)c1cccnc1 [I-91] | ≥ 80 | – |
| CN(C(=O)c1ccc(/C=N/C2CCCC2)cc1)c1cccnc1 [I-233] | ≥ 80 | – |
| Cc1cc(C)nc(Sc2ccc(C(=O)N(Cc3ccccc3)c3cccnc3)cn2)n1 [I-227] | ≥ 80 | – |
| CCSc1ccc(C(=O)Nc2cccnc2)cc1 [I-55] | ≥ 80 | – |
| CN(CCC#N)C(=O)c1ccc(C(=O)Nc2cccnc2)cc1 [I-244] | ≥ 80 | – |
| O=C(Nc1cccnc1)c1ccc(Cn2cnc(C(F)(F)F)n2)cc1 [I-8] | ≥ 80 | – |
| CSCc1ccc(C(=O)N(C)c2cccnc2)cn1 [I-64] | ≥ 80 | – |
| CCN(C(=O)c1ccc(C(=O)OC)cc1)c1cccnc1 [I-241] | ≥ 80 | – |
| CCN(C(=O)c1ccc(Oc2ccc(C)cn2)nc1)c1cccnc1 [I-193] | ≥ 80 | – |
| CCN(C(=O)c1ccc(Oc2ccc(-n3cncn3)cc2)nc1)c1cccnc1 [I-219] | ≥ 80 | – |
| CCN(C(=O)c1ccc(Oc2ccc(Cl)cc2)nc1)c1cccnc1 [I-161] | ≥ 80 | – |

| Compound | pest or weed control at 500 ppm [1] [%] | also measured |
| --- | --- | --- |
| CC(C(=O)c1ccc(Oc2cccc3ncccc23)nc1)c1cccnc1 (centres unmarked) [I-142] | ≥ 80 | – |
| COc1ccc(C(=O)N(C)c2cccnc2)cn1 [I-155] | ≥ 80 | – |
| CSc1ccc(C(=O)N(C)c2cccnc2)cc1F [I-66] | ≥ 80 | – |
| Cc1ccnc(Sc2ccc(C(=O)Nc3cccnc3)cn2)n1 [I-195] | ≥ 80 | – |
| CN(C(=O)c1cccc(Cn2cncn2)c1)c1cccnc1 [I-15] | ≥ 80 | – |
| O=C(Nc1cccnc1)c1ccc(N2CCCCC2)nc1 [I-205] | ≥ 80 | – |
| O=C(Nc1cccnc1)c1ccc(Oc2cccc(C(F)(F)F)c2)nc1 [I-88] | ≥ 80 | – |
| CN(C(=O)c1ccc(Oc2ccc([N+](=O)[O-])cc2)nc1)c1cccnc1 [I-93] | ≥ 80 | – |
| CN(C(=O)c1ccc(Oc2ccc(-n3cncn3)cc2)nc1)c1cccnc1 [I-128] | ≥ 80 | – |
| O=C(Nc1cccnc1)c1ccc(Oc2ccc(C(F)(F)F)cc2)nc1 [I-109] | ≥ 80 | – |
| CC(C)O/N=C/c1ccc(C(=O)N(C)c2cccnc2)cc1 [I-234] | ≥ 80 | – |
| CN(C(=O)c1ccc(C(F)(F)C(F)(F)C(F)(F)F)cc1)c1cccnc1 [I-47] | – | pest or weed control at 500 ppm: ≥ 80% |
| COc1nc(OC)nc(Sc2ccc(C(=O)N(C)c3cccnc3)cc2)n1 [I-189] | ≥ 80 | – |
| O=C(Nc1cccnc1)c1ccc(Cn2cc(Br)c(C(F)(F)F)n2)cc1 [I-20] | ≥ 80 | – |
| CN(C(=O)c1ccc(Oc2cnc(C(F)(F)F)nc2)nc1)c1cccnc1 [I-185] | ≥ 80 | – |
| CSCc1ccc(C(=O)N(C)c2cccnc2)cc1 [I-59] | ≥ 80 | – |
| O=C(Nc1cccnc1)c1ccc(SC(F)(F)F)cc1 [I-37] | ≥ 80 | – |
| O=C(Nc1cccnc1)c1ccc(Cn2nc(C(F)(F)F)nc2C(F)(F)F)cc1 [I-5] | ≥ 80 | – |
| Cc1cc(C)nc(Oc2ccc(C(=O)Nc3cccnc3)cc2)n1 [I-181] | ≥ 80 | – |
| CN(C(=O)c1cccc(Cn2nc(C(F)(F)F)cc2C(F)(F)F)c1)c1cccnc1 [I-13] | ≥ 80 | – |
| COc1ccc(Oc2ccc(Oc3ccc(C(=O)N(C)c4cccnc4)cn3)cc2)cc1 [I-131] | ≥ 80 | – |
| Cc1ccc(C(=O)N(C)c2cccnc2)cn1 [I-43] | ≥ 80 | – |
| COc1ccc(C(=O)Nc2cccnc2)cc1C(=O)NC(C)C [I-78] | ≥ 80 | – |

| Compound | pest or weed control at 500 ppm [1] [%] | also measured |
| --- | --- | --- |
| O=C(Nc1cccnc1)c1ccc(Oc2cccc(Cl)c2)nc1 [I-83, 6-(3-Chlorophenoxy)-N-pyridin-3-ylnicotinamide] | ≥ 80 | – |
| CCSc1ccc(C(=O)N(CC)c2cccnc2)cc1 [I-65] | – | pest or weed control at 100 ppm (spray on aubergine plants): ≥ 80% |
| CCN(C(=O)c1ccc(Oc2nc(OC)cc(OC)n2)cc1)c1cccnc1 [I-172] | ≥ 80 | – |
| CN(C(=O)c1ccc(Sc2ccc(Cl)cc2)nc1)c1cccnc1 [I-107] | ≥ 80 | – |
| CN(C(=O)c1ccc(Oc2cccc(C(F)(F)F)c2)nc1)c1cccnc1 [I-100] | ≥ 80 | – |
| CN(C(=O)c1ccc(Cn2cnc(C(F)(F)F)n2)cc1)c1cccnc1 [I-25] | ≥ 80 | – |
| CN(C(=O)c1ccc(Oc2cc(Cl)cc(Cl)c2)nc1)c1cccnc1 [I-123] | ≥ 80 | – |
| CC(C)NC(=O)c1cccc(C(=O)N(C)c2cccnc2)c1 [I-75] | ≥ 80 | – |
| CCN(C(=O)c1ccc(Oc2ccc(S(C)(=O)=O)cc2)nc1)c1cccnc1 [I-154] | ≥ 80 | – |
| CN(C(=O)c1ccc(N(C)C(=O)C(F)(F)Cl)cc1)c1cccnc1 [I-245] | ≥ 80 | – |
| CN(C(=O)c1cnc(Oc2ccc(OC(F)(F)F)cc2)c(Cl)c1)c1cccnc1 [I-147] | ≥ 80 | – |
| CN(C(=O)c1ccc(Oc2cccc(Cl)c2)nc1)c1cccnc1 [I-99] | ≥ 80 | – |
| C=CCN(C(=O)c1ccc(Oc2ccc(OC(F)(F)F)cc2)nc1)c1cccnc1 [I-134] | ≥ 80 | – |
| O=C(Nc1cccnc1)c1ccc(Cn2nc(C(F)(F)F)nc2C(F)(F)F)nc1 [I-6] | ≥ 80 | – |
| CCOc1ccc(C(=O)N(C)c2cccnc2)cn1 [I-156] | ≥ 80 | – |
| COc1nc(OC)nc(Sc2ccc(C(=O)N(C)c3cccnc3)cn2)n1 [I-200] | ≥ 80 | – |
| CCN(C(=O)c1ccc(Cl)nc1)c1cccnc1 [I-191] | ≥ 80 | – |
| CCN(C(=O)c1ccc(Oc2ccc([N+](=O)[O-])cc2)nc1)c1cccnc1 [I-163] | ≥ 80 | – |
| CN(C(=O)c1ccc(Cn2cncn2)cc1)c1cccnc1 [I-22] | ≥ 80 | – |
| CCN(C(=O)c1ccc(Oc2nc(C)cc(C)n2)cc1)c1cccnc1 [I-183] | ≥ 80 | – |
| CN(C(=O)c1ccc(Oc2ccc(OC(F)(F)F)cc2)nc1)c1cccnc1 [I-116] | ≥ 80 | – |
| CN(C(=O)c1ccc(Cn2nc(C(F)(F)F)nc2C(F)(F)F)nc1)c1cccnc1 [I-50] | ≥ 80 | – |
| COc1cc(OC)nc(Sc2ccc(C(=O)N(C)c3cccnc3)cn2)n1 [I-174] | ≥ 80 | – |

| Compound | pest or weed control at 500 ppm [1] [%] | also measured |
| --- | --- | --- |
| CN(C(=O)c1ccc(SC(F)(F)F)cc1)c1cccnc1 [I-54] | ≥ 80 | – |
| O=C(Nc1cccnc1)c1ccc(C(F)(F)C(F)(F)C(F)(F)F)nc1 [I-30] | – | pest or weed control at 500 ppm: ≥ 80% |
| CN(C(=O)c1ccc(C(=O)NCc2ccccc2)cc1)c1cccnc1 [I-255] | ≥ 80 | – |
| CCN(C(=O)c1ccc(Sc2nc(C)cc(C)n2)nc1)c1cccnc1 [I-192] | ≥ 80 | – |
| Cc1cncc(C(=O)Nc2cccnc2)c1 [I-10] | – | pest or weed control at 100 ppm (spray on aubergine plants): ≥ 80% |
| CN(C(=O)c1ccc(Oc2ccc(C#N)cc2)nc1)c1cccnc1 [I-90] | ≥ 80 | – |
| COc1cc(OC)nc(Oc2ccc(C(=O)N(C)c3cccnc3)cc2)n1 [I-171] | ≥ 80 | – |
| COc1cc(OC)nc(Oc2ccc(C(=O)Nc3cccnc3)cn2)n1 [I-168] | ≥ 80 | – |
| C=CCN(C(=O)c1ccc(Sc2nc(C)cc(C)n2)nc1)c1cccnc1 [I-224] | ≥ 80 | – |
| CCN(C(=O)c1cccc(OCc2nc(OC)cc(OC)n2)c1)c1cccnc1 [I-208] | ≥ 80 | – |
| CCN(C)C(=O)c1cccc(C(=O)N(C)c2cccnc2)c1 [I-74] | ≥ 80 | – |
| O=C(Nc1cccnc1)c1ccc(N2CCOCC2)nc1 [I-212] | ≥ 80 | – |
| O=C(Nc1cccnc1)c1ccc(Sc2ncccn2)nc1 [I-194] | ≥ 80 | – |
| Cc1ccccc1Oc1ccc(C(=O)N(C)c2cccnc2)cn1 [I-96] | ≥ 80 | – |
| CN(C(=O)c1ccc(Sc2ccc(C(F)(F)F)cn2)nc1)c1cccnc1 [I-119] | ≥ 80 | – |
| CSCc1cccc(C(=O)N(C)c2cccnc2)c1 [I-57] | ≥ 80 | – |
| Cc1cc(C)nc(Sc2ncc(C(=O)N(C)c3cccnc3)cc2Cl)n1 [I-152] | ≥ 80 | – |
| Cc1ccc(Oc2ccc(C(=O)N(C)c3cccnc3)cn2)cn1 [I-80] | ≥ 80 | – |
| CN(C(=O)c1ccc(Oc2ccccc2Cl)nc1)c1cccnc1 [I-98] | ≥ 80 | – |
| COc1ccc(Oc2ccc(C(=O)N(C)c3cccnc3)cn2)cc1 [I-92] | ≥ 80 | – |
